# In ChEMBL document CHEMBL1142393, “Design and characterization of mechanism-based inhibitors for the tyrosine aminomutase SgTAM” (Bioorg Med Chem Lett, 2008):
# Experiment: Inhibition of Streptomyces globisporus TAM
row,IC50,Compound
1,11.6 mM,O=C(O)[C@H]1O[C@@H]1c1ccc(F)cc1
2,3 mM,COc1ccc([C@H]2O[C@@H]2C(=O)O)cc1
3,7.3 mM,N[C@H](c1ccccc1)C(F)(F)C(=O)O

row,Compound,IC50
1,O=C(O)[C@H]1O[C@@H]1c1ccccc1,5.8 mM
